According to patent US20240103006A1 (Roche Diagnostics Operations, Inc., priority 2021, published 2024):
Values after ≈ are worked out from the molar mass of the structure shown. Marks after values point to notes of the source that are not given here.

How the values were obtained:
[1] = UV-vis spectral properties / extinction coefficients in aqueous buffer; format: physicochemical; conditions: probe before addition of Cys; for ε of long-wavelength band of probe / ε of short-wavelength band(s) of probe / λmax, long-wavelength band of probe / λmax, short-wavelength band(s) of probe: 25 mM HEPES pH 7.4
Protocol: Absorption spectra were recorded on a Cary 50 UV-vis spectrometer from Varian. All measurements were performed in 1 cm UV-vis disposable cuvettes (BRAND semi-micro) and air-equilibrated solutions at 25±0.1° C. A total assay volume of 1.0 mL was used for each measurement. UV-vis scan spectra were recorded using following parameters: average time 0.05 s; data interval 1 nm; scan rate 1200 nm/min; with base line correction.
(§1) Stock solutions of assayed compounds (2-5 mM) were prepared in H2O-DMSO (1:1), stored at −20° C., and diluted to 1.0 mM with buffer before use. The L-Cys stock solution (20.0 mM) was freshly prepared in buffer before the measurements. […]
For a measurement, 1000 μL of buffer and 1-50 μL of probe (1.0 mM) were mixed, and then transferred to a cuvette. Absorbance spectra (250-800 nm) were measured against a blank of the buffer. At least six concentrations of each compound were used to calculate extinction coefficients from the slope of probe concentration vs absorbance plots, using MS Excel software (Microsoft).

[2] = Cys-response screening by UV-vis (cleavage of acryloyl ester by excess Cys); conditions: for ε^Cys / λ^Cys: after excess Cys (100 μM), 37° C., 15 min; for SNR: from ε^Cys and ε^blank
Protocol: as §1
In the same manner, ε^Cys was determined from the solutions of probe reacted with an excess of Cys (100 μM). The reactions were performed at 37° C. (incubation time 15 min). Blank reactions were run without addition of Cys.
Spectra recorded in the presence of Cys confirmed a colorimetric response through the cleavage of acryloyl ester. […] Moreover, their spectral profiles were advantageously fulfilling the wavelength requirement for the Cys sensing application in Cedex system (340, 378, 409, 480, 512, 520, 552, 583, 629, 652, 659 and 800 nm).

[3] = Evaluation of stability (hydrolysis of probe in buffer, UV-vis); format: physicochemical; conditions: 25 mM HEPES pH 7.4, 15.6 μM, 5 h, ε from merocyanine analogues (LZ07: ε from Table 2)
Protocol: For a measurement, 1000 μL of buffer and 16 μL of probe (1.0 mM) were mixed, and then incubated at +4° C. and at +37° C. for 5 h. The resulting mixtures were transferred to a cuvette, and the absorbance (250-800 nm) was measured. Each measurement was done in triplicate.
[…] Solutions of each probe were monitored by UV-vis for 5 h.

[4] = Evaluation of solubility in water; format: physicochemical; conditions: for Solubility (by weight) / Solubility (by UV-vis): H2O at RT; for Solubility (by weight): calculated from isolated pellet weight; for Solubility (by UV-vis): supernatant read in 25 mM HEPES pH 7.4
Protocol: In the experiments, 5-10 mg of dried material was suspended in 250-500 μL of H2O at RT. The resulting suspension was centrifuged for 10 min at RT (16000 rcf). UV-vis of supernatant were recorded in buffer (25 mM HEPES pH 7.4) at RT. Each measurement was done in triplicate. The pellet was dried in vacuo for 16 h, and then weighed.
The aqueous solubility of probes is another important property for the performance of compounds in biological assays. The inventors determined the solubility in water of the probes according to the invention using UV-vis. First, oversaturated mixtures of each probe were prepared. The mixtures were centrifuged, and then the concentrations in probes of supernatant were examined by UV-vis. To further validate the results, the concentrations were calculated from the isolated pellet weight.

[5] = Probe performance in Cedex Bio HT: Cys sensing in a feed medium
Protocol: The rapid kinetic profile, stability and low background signal as obtained were encouraging to further use MF70 for Cys-sensing in Cedex Bio HT. Reagent solution was treated with various Cys-concentrations (0.5-7.6 mM) in a feed medium, which is used for monoclonal antibody production. […] Under these conditions, a reliable response was obtained over the period of one week (Table 5), with corresponding detection limit of 3.6 μM Cys, and limit of blank 2.2 μM Cys.

Compound	ε of long-wavelength band of probe [1]	ε of short-wavelength band(s) of probe [1]	λmax, long-wavelength band of probe [1]	λmax, short-wavelength band(s) of probe [1]	ε^Cys ([2]; 25 mM HEPES pH 7.4)	λ^Cys ([2]; 25 mM HEPES pH 7.4)	SNR ([2]; 25 mM HEPES pH 7.4)	Hydrolysis @4° C. [3]	Hydrolysis @37° C. [3]	Solubility (by weight) [4]	Solubility (by UV-vis) [4]	ε^Cys ([2]; same buffer at pH 8.0)	λ^Cys ([2]; same buffer at pH 8.0)	SNR ([2]; same buffer at pH 8.0)	ε of short-wavelength band of probe ([1]; same buffer at pH 8.0)	λmax, short-wavelength band of probe ([1]; same buffer at pH 8.0)	detection limit [5]	limit of blank [5]	aqueous solubility (in words) ([4]; in comparison to LZ05 and MF59)
C=CC(=O)Oc1ccc(/C=C/C2=[N+](CCCCS(=O)(=O)[O-])c3ccccc3C2(C)C)cc1 [LZ05, reference compound]	1.3 mM⁻¹ cm⁻¹	17.3 mM⁻¹ cm⁻¹	527 nm	389 nm	31.9 mM⁻¹ cm⁻¹	527 nm	12	8.4 ± 0.2%	36.9 ± 0.4%	12 mM (≈ 5440 µg/mL)	11.0 ± 1.0 mM (≈ 4990 µg/mL)	–	–	–	–	–	–	–	–
C=CC(=O)Oc1ccc(/C=C/C2=[N+](C)c3ccccc3C2(C)C)cc1 [LZ07, reference compound]	0.6 mM⁻¹ cm⁻¹	16.9 mM⁻¹ cm⁻¹	520 nm	383 nm	31.5 mM⁻¹ cm⁻¹	520 nm	16	7.3 ± 0.1 %	30.1 ± 0.2 %	17 mM	15.4 ± 1.5 mM	–	–	–	–	–	–	–	–
C=CC(=O)Oc1c(C)cc(/C=C/C2=[N+](CCCCS(=O)(=O)[O-])c3ccccc3C2(C)C)cc1C [MF59]	0.7 mM⁻¹ cm⁻¹	16.7 mM⁻¹ cm⁻¹	550 nm	391 nm	17.9 mM⁻¹ cm⁻¹	550 nm	20	1.2 ± 0.0%	4.7 ± 0.1%	2 mM (≈ 963 µg/mL)	5.8 ± 0.2 mM (≈ 2790 µg/mL)	52.9 mM⁻¹ cm⁻¹	550 nm	44**	–	–	–	–	–
C=CC(=O)Oc1c(C)cc(/C=C/C2=[N+](CCCS(=O)(=O)O)c3ccc(S(=O)(=O)[O-])cc3C2(C)C)cc1C [MF70]	–	21.9 mM⁻¹ cm⁻¹	–	400 nm	23.6 mM⁻¹ cm⁻¹	556 nm	118	0.2 ± 0.0%	0.8 ± 0.0%	≥47 mM	≥41 mM	55.8 mM⁻¹ cm⁻¹	556 nm	140**	16.6 mM⁻¹ cm⁻¹	400 nm	3.6 μM Cys	2.2 μM Cys	highly water-soluble
C=CC(=O)Oc1c(OC)cc(/C=C/C2=[N+](CCCCS(=O)(=O)[O-])c3ccccc3C2(C)C)cc1OC [MF72]	–	14.2 mM⁻¹ cm⁻¹	–	396 nm	31.0 mM⁻¹ cm⁻¹	575 nm	103	0.8 ± 0.1%	2.8 ± 0.1%	–	–	–	–	–	–	–	–	–	–
